Read-outs that look alike come from different tables or passages of the source.
Tests used:
KasQ = KasQ (Streptomyces kasugaensis, UniProt A0A0K1H2R6); assay: Isothermal titration calorimetry (ITC) of KasQ wild type versus substrates; format: binding; conditions: for ∆G / ∆H / ∆S / Kd / n: KasQ wild type; for Kd / n: 25 °C, 50 mM HEPES pH 8.0, 100 mM NaCl; for n: ITC binding stoichiometry;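 on all read-outs here: titration of 1 mM substrate into 0.1 mM KasQ, 18 injections spaced 120 s, data fitted to a single-site binding model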
KasQ, sequence (A0A0K1H2R6 entry or part of it): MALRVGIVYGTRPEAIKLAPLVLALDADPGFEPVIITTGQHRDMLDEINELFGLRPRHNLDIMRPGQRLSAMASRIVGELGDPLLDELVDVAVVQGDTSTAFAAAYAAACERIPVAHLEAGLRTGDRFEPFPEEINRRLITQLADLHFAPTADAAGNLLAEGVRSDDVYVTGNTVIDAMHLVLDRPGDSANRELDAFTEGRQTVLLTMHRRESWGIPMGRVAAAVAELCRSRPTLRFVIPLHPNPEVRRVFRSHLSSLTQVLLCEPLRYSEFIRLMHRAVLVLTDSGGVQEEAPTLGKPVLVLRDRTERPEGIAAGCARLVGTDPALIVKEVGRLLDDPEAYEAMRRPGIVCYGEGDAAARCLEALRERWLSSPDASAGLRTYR
Experimental: (§3) ITC analyses were carried out at 25 °C using an ITC200 microcalorimeter (MicroCal Inc., Northampton, MA, USA). […] The titration experiment contains 18 injections (2 μL for a duration of 4 s) and each injection was separated by 120 s. The distilled water was filled in the reference cell throughout all titrations. The cell stirring speed was 1000 rpm. The collected raw data were processed in Origin 7.0 (provided by MicroCal) by a non-linear least square method to a single-site binding model.

KasH = KasH (Streptomyces kasugaensis, UniProt A0A0K1H2T0); assay: ITC of KasH versus ligands; conditions: KasH; for n: ITC binding stoichiometry; for n / Kd: 50 mM MOPS pH 7.5, 100 mM NaCl; for ∆G / ∆H / ∆S / Kd: ITC;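 on all read-outs here: isothermal titration calorimetry at 25 °C, 0.1 mM KasH in the cell titrated with 1 mM ligand over 18 injections, data fit with a one-site binding model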
KasH, sequence (A0A0K1H2T0 entry or part of it): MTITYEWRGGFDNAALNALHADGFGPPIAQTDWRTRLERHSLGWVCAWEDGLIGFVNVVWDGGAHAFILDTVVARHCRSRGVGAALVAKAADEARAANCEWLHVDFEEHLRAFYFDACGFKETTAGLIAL
Experimental: as §3

KasQ E308A = KasQ E308A (Streptomyces kasugaensis, UniProt A0A0K1H2R6, E308A); assay: biochemical; format: binding
KasQ E308A, sequence (A0A0K1H2R6 entry or part of it E308A): as the sequence (A0A0K1H2R6 entry or part of it) above
Experimental: (§1) Site-directed mutagenesis was performed using QuikChange (Stratagene), following the manufacturer’s protocol. The wild-type KasQ plasmid (BCRC12349) was used as the template for the single mutation. All mutations were confirmed by DNA sequencing. KasQ mutants were expressed and purified with the same protocol as used for the wild-type protein.
(§2) The cell stirring speed was 1000 rpm.

KasQ Q95A = KasQ Q95A (Streptomyces kasugaensis, UniProt A0A0K1H2R6, Q95A); assay: biochemical; format: binding
KasQ Q95A, sequence (A0A0K1H2R6 entry or part of it Q95A): as the sequence (A0A0K1H2R6 entry or part of it) above, with Q95A counted along it
Experimental: as §1, §2

KasQ Q95E = KasQ Q95E (Streptomyces kasugaensis, UniProt A0A0K1H2R6, Q95E); assay: biochemical; format: binding
KasQ Q95E, sequence (A0A0K1H2R6 entry or part of it Q95E): as the sequence (A0A0K1H2R6 entry or part of it) above, with Q95E counted along it
Experimental: as §1, §2

| Compound | ∆G (KasQ; ITC) | ∆H (KasQ; ITC) | ∆S (KasQ; ITC) | Kd (KasQ; ITC) | further results |
| --- | --- | --- | --- | --- | --- |
| Nc1nc2c(ncn2[C@@H]2O[C@H](COP(=O)(O)OP(=O)(O)O)[C@@H](O)[C@H]2O)c(=O)[nH]1 [GDP] | NBD | NBD | NBD | nor AMP, ADP, ATP, GMP, GDP, or GTP shows detectable binding affinity and NBD | – |
| CC(=O)SCCNC(=O)CCNC(=O)[C@H](O)C(C)(C)COP(=O)(O)OP(=O)(O)OC[C@H]1O[C@@H](n2cnc3c(N)ncnc32)[C@H](O)[C@@H]1OP(=O)(O)O [AcCoA] | – | – | – | – | n (KasH): 1.3 ± 0.4; ∆G (KasH): -21.92 ± 34.29 kJ/mol; ∆H (KasH): -59.37 ± 34.29 kJ/mol; ∆S (KasH): -30.02 cal mol-1 K-1; Kd (KasH): 161 µM |
| CC(=O)N[C@H]1[C@@H](OP(=O)(O)OP(=O)(O)OC[C@H]2O[C@@H](n3ccc(=O)[nH]c3=O)[C@H](O)[C@@H]2O)O[C@H](CO)[C@H](O)[C@@H]1O [UDP-GalNAc] | -19.84 ± 7.113 kJ/mol | -14.3 ± 7.113 kJ/mol | 4.44 cal mol^−1 K^−1 | – | n (KasQ): 1.8 ± 0.4 |
| O=C(O)[C@H]1OC(O)[C@H](O)[C@@H](O)[C@H]1O (some centres unmarked) [GalA] | NBD | NBD | NBD | NBD | – |
| CCC(=O)SCCNC(=O)CCNC(=O)[C@H](O)C(C)(C)COP(=O)(O)OP(=O)(O)OC[C@H]1O[C@@H](n2cnc3c(N)ncnc32)[C@H](O)[C@@H]1OP(=O)(O)O [Propionyl-CoA, propionyl-CoA] | – | – | – | – | n (KasH): 0.5 ± 0.0; ∆G (KasH): -25.44 ± 1.639 kJ/mol; ∆H (KasH): -30.76 ± 1.639 kJ/mol; ∆S (KasH): -4.26 cal mol-1 K-1; Kd (KasH): 35 µM |
| Cc1cn([C@H]2C[C@H](O)[C@@H](COP(=O)(O)OP(=O)(O)OP(=O)(O)O)O2)c(=O)[nH]c1=O [TTP] | -21.46 ± 5.109 kJ/mol | -31.85 ± 5.109 kJ/mol | −8.33 cal mol^−1 K^−1 | – | n (KasQ): 1.1 ± 0.1; Kd (KasQ; ITC, read-out: Kd): 174 ± 20.2 µM |
| O=C(O)[C@H]1O[C@H](OP(=O)(O)OP(=O)(O)OC[C@H]2O[C@@H](n3ccc(=O)[nH]c3=O)[C@H](O)[C@@H]2O)[C@H](O)[C@@H](O)[C@@H]1O [UDP-GlcA] | -23.5 ± 2.406 kJ/mol | -5.757 ± 2.406 kJ/mol | 14.2 cal mol^−1 K^−1 | – | n (KasQ): 1.5 ± 0.2; Kd (KasQ; ITC, read-out: Kd): 76.3 ± 15.2 µM; Kd (KasQ E308A): 106 µM; n (KasQ E308A; ITC binding stoichiometry, KasQ mutant E308A): 1.1 ± 0.7; ∆G (KasQ E308A; ITC, KasQ mutant E308A): -22.68 ± 15.45 kJ/mol; ∆H (KasQ E308A; ITC, KasQ mutant E308A): -13.36 ± 15.45 kJ/mol; ∆S (KasQ E308A; ITC, KasQ mutant E308A): 7.47 cal mol-1 K-1; Kd (KasQ Q95A): 44.4 µM; n (KasQ Q95A; ITC binding stoichiometry, KasQ mutant Q95A): 1.7 ± 0.0; ∆G (KasQ Q95A; ITC, KasQ mutant Q95A): -24.78 ± 0.354 kJ/mol; ∆H (KasQ Q95A; ITC, KasQ mutant Q95A): -2.823 ± 0.354 kJ/mol; ∆S (KasQ Q95A; ITC, KasQ mutant Q95A): 17.6 cal mol-1 K-1; Kd (KasQ Q95E): 11.8 µM; n (KasQ Q95E; ITC binding stoichiometry, KasQ mutant Q95E): 2.1 ± 0.1; ∆G (KasQ Q95E; ITC, KasQ mutant Q95E): -29.9 ± 0.0816 kJ/mol; ∆H (KasQ Q95E; ITC, KasQ mutant Q95E): -1.846 ± 0.0816 kJ/mol; ∆S (KasQ Q95E; ITC, KasQ mutant Q95E): 22.5 cal mol-1 K-1 |
| O=C(O)[C@H]1OC(O)[C@H](O)[C@@H](O)[C@@H]1O (some centres unmarked) [GlcA] | NBD | NBD | NBD | NBD | – |
| Nc1nc2c(ncn2[C@@H]2O[C@H](COP(=O)(O)O)[C@@H](O)[C@H]2O)c(=O)[nH]1 [GMP] | NBD | NBD | NBD | nor AMP, ADP, ATP, GMP, GDP, or GTP shows detectable binding affinity and NBD | – |
| O=c1ccn([C@@H]2O[C@H](COP(=O)(O)OP(=O)(O)OP(=O)(O)O)[C@@H](O)[C@H]2O)c(=O)[nH]1 [UTP] | -23.62 ± 5.607 kJ/mol | -38.09 ± 5.607 kJ/mol | −11.6 cal mol^−1 K^−1 | – | n (KasQ): 1.0 ± 0.0; Kd (KasQ; ITC, read-out: Kd): 71.4 ± 5.7 µM |
| CC(=O)N[C@H]1C(O)O[C@H](CO)[C@H](O)[C@@H]1O (some centres unmarked) [GalNAc] | NBD | NBD | NBD | NBD | – |
| N[C@H]1C(O)O[C@H](CO)[C@@H](O)[C@@H]1O (some centres unmarked) [GlcNH2] | NBD | NBD | NBD | NBD | – |
| Nc1nc2c(ncn2[C@@H]2O[C@H](COP(=O)(O)OP(=O)(O)O[C@H]3O[C@H](CO)[C@@H](O)[C@H](O)[C@@H]3O)[C@@H](O)[C@H]2O)c(=O)[nH]1 [GDP-Man] | NBD | NBD | NBD | NBD | – |
| O=c1ccn([C@@H]2O[C@H](COP(=O)(O)O)[C@@H](O)[C@H]2O)c(=O)[nH]1 [UMP] | -55.19 ± 5.209 kJ/mol | -38.72 ± 5.209 kJ/mol | – | – | n (KasQ): 1.0 ± 0.0; Kd (KasQ; ITC, read-out: Kd): 124 ± 70.9 µM |
| Nc1ncnc2c1ncn2[C@@H]1O[C@H](COP(=O)(O)OP(=O)(O)OP(=O)(O)O)[C@@H](O)[C@H]1O [ATP] | NBD | NBD | NBD | nor AMP, ADP, ATP, GMP, GDP, or GTP shows detectable binding affinity and NBD | – |
| OC[C@H]1OC(O)[C@H](O)[C@@H](O)[C@@H]1O (stereo partly drawn) [D-Glucose] | NBD | NBD | NBD | NBD | – |
| Nc1ncnc2c1ncn2[C@@H]1O[C@H](COP(=O)(O)O)[C@@H](O)[C@H]1O [AMP] | NBD | NBD | NBD | nor AMP, ADP, ATP, GMP, GDP, or GTP shows detectable binding affinity and NBD | – |
| CC(C)(COP(=O)(O)OP(=O)(O)OC[C@H]1O[C@@H](n2cnc3c(N)ncnc32)[C@H](O)[C@@H]1OP(=O)(O)O)[C@@H](O)C(=O)NCCC(=O)NCCS [CoA] | – | – | – | – | n (KasH): 0.6 ± 0.0; ∆G (KasH): -22.92 ± 5.615 kJ/mol; ∆H (KasH): -30.75 ± 5.615 kJ/mol; ∆S (KasH): -6.28 cal mol-1 K-1; Kd (KasH): 96.1 µM |
| CC(=O)CC(=O)SCCNC(=O)CCNC(=O)[C@H](O)C(C)(C)COP(=O)(O)OP(=O)(O)OC[C@H]1O[C@@H](n2cnc3c(N)ncnc32)[C@H](O)[C@@H]1OP(=O)(O)O [Acetoacetyl-CoA, acetoacetyl-CoA] | – | – | – | – | n (KasH): 0.5 ± 0.1; ∆G (KasH): -22.88 ± 10.36 kJ/mol; ∆H (KasH): -25.73 ± 10.36 kJ/mol; ∆S (KasH): -2.28 cal mol-1 K-1; Kd (KasH): 98 µM |
| O=C[C@H](O)[C@@H](O)[C@@H](O)[C@H](O)CO [D-Galactose] | NBD | NBD | NBD | NBD | – |
| CC(=O)N[C@H]1C(O)O[C@H](CO)[C@@H](O)[C@@H]1O (some centres unmarked) [GlcNAc] | NBD | NBD | NBD | NBD | – |
| CC(C)CC(=O)SCCNC(=O)CCNC(=O)[C@H](O)C(C)(C)COP(=O)(O)OP(=O)(O)OC[C@H]1O[C@@H](n2cnc3c(N)ncnc32)[C@H](O)[C@@H]1OP(=O)(O)O [Isovaleryl-CoA, isovaleryl-CoA] | – | – | – | – | n (KasH): 1.0 ± 0.7; ∆G (KasH): -21.12 ± 13.25 kJ/mol; ∆H (KasH): -13.04 ± 13.25 kJ/mol; ∆S (KasH): 6.48 cal mol-1 K-1; Kd (KasH): 199 µM |
| OC[C@H]1OC(O)[C@@H](O)[C@@H](O)[C@@H]1O (stereo partly drawn) [D-Mannose] | NBD | NBD | NBD | NBD | – |
| Nc1nc2c(ncn2[C@@H]2O[C@H](COP(=O)(O)OP(=O)(O)OC3O[C@H](CO)[C@@H](O)[C@H](O)[C@H]3O)[C@@H](O)[C@H]2O)c(=O)[nH]1 (some centres unmarked) [GDP-Glc] | NBD | NBD | NBD | NBD | – |
| Nc1ncnc2c1ncn2[C@@H]1O[C@H](COP(=O)(O)OP(=O)(O)O)[C@@H](O)[C@H]1O [ADP] | NBD | NBD | NBD | nor AMP, ADP, ATP, GMP, GDP, or GTP shows detectable binding affinity and NBD | – |
| Cc1cn([C@H]2C[C@H](O)[C@@H](COP(=O)(O)OP(=O)(O)O[C@H]3O[C@H](CO)[C@@H](O)[C@H](O)[C@H]3O)O2)c(=O)[nH]c1=O [TDP-Glc] | -26.25 ± 1.16 kJ/mol | -19.11 ± 1.16 kJ/mol | 5.72 cal mol^−1 K^−1 | – | n (KasQ): 0.3 ± 0.0; Kd (KasQ; ITC, read-out: Kd): 25.1 ± 0.2 µM |
| O=c1ccn([C@@H]2O[C@H](COP(=O)(O)OP(=O)(O)O)[C@@H](O)[C@H]2O)c(=O)[nH]1 [UDP 3] | -25.64 ± 2.311 kJ/mol | -17.28 ± 2.311 kJ/mol | 6.70 cal mol^−1 K^−1 | – | n (KasQ): 1.0 ± 0.0; Kd (KasQ; ITC, read-out: Kd): 32.2 ± 6.8 µM; binding affinity versus KasQ relative to UMP, UTP and TTP (KasQ; ITC, higher than that of the others): 2–5 fold |
| Nc1nc2c(ncn2[C@@H]2O[C@H](COP(=O)(O)OP(=O)(O)OP(=O)(O)O)[C@@H](O)[C@H]2O)c(=O)[nH]1 [GTP] | NBD | NBD | NBD | nor AMP, ADP, ATP, GMP, GDP, or GTP shows detectable binding affinity and NBD | – |
| CC(=O)NC1=CO[C@H](CO)[C@@H](O)[C@@H]1O [AAG 2, 2-acetamidoglucal] | NBD | NBD | NBD | NBD | Kd (KasQ; ITC, listed as AAG): no binding affinity |

Source: paper PMC8869731, “KasQ an Epimerase Primes the Biosynthesis of Aminoglycoside Antibiotic Kasugamycin and KasF/H Acetyltransferases Inactivate Its Activity” (Biomedicines, 2022)
